Experimental data published in patent US20250154145A1, “OXER1 ANTAGONISTS AND USES THEREOF” (Fairhaven Pharmaceuticals Ins., priority 2021, published 2025).

Tested on: neutrophils
Experiment: Neutrophil calcium flux assay (5-OXO-ETE-stimulated, Indo-1 fluorescence)
Type: cell-based
Conditions: 5-OXO-ETE-stimulated calcium flux
In short: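 Indo-1-loaded neutrophils (5×10^6 cells/ml, 30 min at 37 °C) in HBSS with Ca/Mg and HEPES, pre-incubated 5 min with antagonist or buffer. Stimulated with 5-OXO-ETE added at 200 nM (4× stock); fluorescence (ex 331/em 410 nm) read every 5 s for 30 cycles, expressed as net fluorescence.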

## CC(CC(=O)O)CC(=O)c1c(CCCCCCC=C=CC(F)(F)F)n(C)c2ccc(Cl)cc12 (stereo not drawn) [Compound I-304]
Neutrophil
  IC50: > 300 nM

## C[C@@H](CC(=O)c1c(CCCCOCc2cccc(Cl)c2)n(C)c2ncc(Cl)cc12)Cc1nnn[nH]1 [Compound I-355]
Neutrophil
  IC50: < 100 nM

## Cn1c(CCCCOCc2cccc(Cl)c2)c(C(=O)N2CC[C@H](C(=O)O)C2)c2cc(C(F)(F)F)cnc21 [Compound I-183]
Neutrophil
  IC50: > 300 nM

## COC(=O)C[C@@H](C)CC(=O)c1c(CCCCOCc2ccccc2)n(C)c2ncc(C#N)cc12 [Compound I-449]
Neutrophil
  IC50: > 300 nM

## C[C@H](CC(=O)O)CC(=O)c1c(CCCCC#Cc2ccccc2)n(C)c2ccc(Cl)cc12 [Compound I-117]
Neutrophil
  IC50: < 100 nM

## C[C@H](CC(=O)O)CC(=O)c1c(CCCCCCC#CC2CC(F)(F)C2)n(C)c2ncc(Cl)cc12 [Compound I-320]
Neutrophil
  IC50: < 100 nM

## [2H]C([2H])([2H])n1c(CCCCOCc2cccc(Cl)c2)c(C(=O)C[C@H](C)CC(=O)O)c2cc(C#N)ccc21 [Compound I-421]
Neutrophil
  IC50: < 100 nM

## CC(CC(=O)O)CC(=O)c1c(CCCOCC(F)(F)c2cccc(Cl)c2)n(C)c2ccc(Cl)cc12 (stereo not drawn) [Compound I-430]
Neutrophil
  IC50: < 100 nM

## Cn1c(CCCCCCC#CC2CC(F)(F)C2)c(C(=O)N2CC[C@](F)(C(=O)O)C2)c2cc(C#N)cnc21 [Compound I-344]
Neutrophil
  IC50: > 300 nM

## Cn1c(CCCCCCC#CC2CC(F)(F)C2)c(C(=O)N2CC[C@H](c3noc(=O)[nH]3)C2)c2cc(C#N)cnc21 [Compound I-456]
Neutrophil
  IC50: > 300 nM

## C[C@H](CC(=O)O)CC(=O)c1c(CCCCCNc2cccc(Cl)c2)n(C)c2ccc(Cl)cc12 [Compound I-79]
Neutrophil
  IC50: < 100 nM

## C[C@H](CC(=O)O)CC(=O)c1c(CCCCCCC#CC2CCC2)n(C)c2ccc(Cl)cc12 [Compound I-113]
Neutrophil
  IC50: > 300 nM

## CC(CC(=O)O)CC(=O)c1c(CCOCCNc2cccc(Cl)c2)n(C)c2ncc(C#N)cc12 (stereo not drawn) [Compound I-288]
Neutrophil
  IC50: 100 to 300 nM

## CC(CC(=O)O)CC(=O)c1c(CCCC[S+]([O-])Cc2ccccc2)n(C)c2ncc(C#N)cc12 (stereo not drawn) [Compound I-427]
Neutrophil
  IC50: > 300 nM

## C[C@H](CC(=O)O)NC(=O)c1c(CCCCCCc2cccc(Cl)c2)n(C)c2ccc(Cl)cc12 [Compound I-237]
Neutrophil
  IC50: > 300 nM

## CC(CC(=O)O)CC(=O)c1c(CCCCCCc2cccc(C#N)c2)n(C)c2ncc(Cl)cc12 (stereo not drawn) [Compound I-285]
Neutrophil
  IC50: < 100 nM

## Cn1c(CCCCCC#CC2CC(F)(F)C2)c(C(=O)N2CC[C@H](C(=O)O)C2)c2cc(C#N)cnc21 [Compound I-343]
Neutrophil
  IC50: > 300 nM

## C[C@H](CC(=O)O)CC(=O)c1c(CCCCOCc2ccc(F)cc2)n(C)c2ncc(C#N)cc12 [Compound I-249]
Neutrophil
  IC50: < 100 nM

## C[C@H](CC(=O)O)CC(=O)c1c(CCOCCNc2cccc(F)c2)n(C)c2ncc(C#N)cc12 [Compound I-246]
Neutrophil
  IC50: 100 to 300 nM

## Cc1ccccc1COCCCCc1c(C(=O)CC(C)CC(=O)O)c2cc(C#N)cnc2n1C (stereo not drawn) [Compound I-450]
Neutrophil
  IC50: > 300 nM

## C[C@@H](CC(=O)O)CC(=O)c1c(CCCCOCc2cc(Cl)cc(Cl)c2)n(C)c2ncc(C#N)cc12 [Compound I-386]
Neutrophil
  IC50: 100 to 300 nM

## Cn1c(CCCCOCc2cccc(Cl)c2)c(C(=O)N2CCC[C@H](C(=O)O)C2)c2cc(C#N)cnc21 [Compound I-181]
Neutrophil
  IC50: > 300 nM

## C[C@H](CC(=O)O)CC(=O)c1c(CCCCOCc2cccc(Cl)c2)n(C)c2cnc(Cl)cc12 [Compound I-410]
Neutrophil
  IC50: < 100 nM

## Cn1c(CCCCCCCC#CC2CC(F)(F)C2)c(C(=O)N2CC[C@H](c3nnn[nH]3)C2)c2cc(C#N)cnc21 [Compound I-358]
Neutrophil
  IC50: > 300 nM

## COc1cccc(COCCCCc2c(C(=O)CC(C)CC(=O)O)c3cc(Cl)cnc3n2C)n1 (stereo not drawn) [Compound I-447]
Neutrophil
  IC50: > 300 nM

## CC(=O)Nc1cccc(C(O)CCCCCc2c(C(=O)CC(C)CC(=O)O)c3cc(C#N)cnc3n2C)c1 (stereo not drawn) [Compound I-312]
Neutrophil
  IC50: > 300 nM

## Cn1c(CCCCCCc2cccc(Cl)c2)c(C(=O)N2CC[C@H](c3nnn[nH]3)C2)c2cc(C#N)cnc21 [Compound I-223]
Neutrophil
  IC50: < 100 nM

## CC(CN(C)C(=O)c1c(CCCCOCc2cccc(Cl)c2)n(C)c2ncc(C#N)cc12)C(=O)O (stereo not drawn) [Compound I-244]
Neutrophil
  IC50: > 300 nM

## CC(CC(=O)O)CC(=O)c1c(CCCCS(=O)(=O)Cc2ccccc2)n(C)c2ncc(C#N)cc12 (stereo not drawn) [Compound I-428]
Neutrophil
  IC50: > 300 nM

## C[C@H](CC(=O)O)CC(=O)c1c(CCCCOCc2cccc(C#N)c2)n(C)c2ncc(Cl)cc12 [Compound I-212]
Neutrophil
  IC50: < 100 nM

## CC(CC(=O)O)CC(=O)c1c(CCCCCCC#CC2COC2)n(C)c2ccc(Cl)cc12 (stereo not drawn) [Compound I-321]
Neutrophil
  IC50: < 100 nM

## CC(CC(=O)O)CC(=O)c1c(CCCCCCC#CC2CC(F)(F)C2)n(C)c2ccc(Cl)cc12 (stereo not drawn) [Compound I-278]
Neutrophil
  IC50: < 100 nM

## Cn1c(COCCCCC#CC2CC(F)(F)C2)c(C(=O)N2CC[C@H](C(=O)O)C2)c2cc(Cl)ccc21 [Compound I-349]
Neutrophil
  IC50: > 300 nM

## CC(CC(=O)O)CC(=O)c1c(CCCCOCc2cccc(Cl)c2)n(CCO)c2ncc(C#N)cc12 (stereo not drawn) [Compound I-377]
Neutrophil
  IC50: > 300 nM

## C[C@H](CC(=O)O)CC(=O)c1c(CCCCOCc2cc(Cl)cc(Cl)c2)n(C)c2ncc(C#N)cc12 [Compound I-385]
Neutrophil
  IC50: < 100 nM

## C[C@H](CC(=O)O)CC(=O)c1c(CCCCC[C@H](O)c2cccc(Cl)c2)n(C)c2ncc(Cl)cc12 [Compound I-110]
Neutrophil
  IC50: < 100 nM

## Cn1c(CCCCCCC#CC2CC(F)(F)C2)c(C(=O)O)c2cc(Br)cnc21 [Compound I-348]
Neutrophil
  IC50: > 300 nM

## Cn1c(CCCCCCc2cccc(Cl)c2)c(C(=O)N2CCC[C@@H](C(=O)O)C2)c2cc(Cl)ccc21 [Compound I-156]
Neutrophil
  IC50: > 300 nM

## CC(CC(=O)O)CC(=O)c1c(CCCCOCc2cc(C#N)ccn2)n(C)c2ncc(Cl)cc12 (stereo not drawn) [Compound I-444]
Neutrophil
  IC50: > 300 nM

## Cn1c(CCCCCCCC#CC2CC(F)(F)C2)c(C(=O)N2CC[C@H](C(=O)O)C2)c2cc(C#N)cnc21 [Compound I-342]
Neutrophil
  IC50: > 300 nM

## C[C@H](CC(=O)O)CC(=O)c1c(CCCCC#Cc2cccnc2)n(C)c2ccc(Cl)cc12 [Compound I-176]
Neutrophil
  IC50: < 100 nM

## C[C@@H]1CN(C(=O)c2c(CCCCCCC#CC3CC(F)(F)C3)n(C)c3ncc(C#N)cc23)C[C@H]1C(=O)O [Compound I-347]
Neutrophil
  IC50: > 300 nM

## C[C@H](CC(=O)O)CC(=O)c1c(CCCCOCc2cccc(C#N)c2)n(C)c2ncc(C#N)cc12 [Compound I-383]
Neutrophil
  IC50: < 100 nM

## C[C@H](CC#N)CC(=O)c1c(CCCCOCc2cccc(Cl)c2)n(C)c2ncc(Cl)cc12 [Compound I-357]
Neutrophil
  IC50: > 300 nM

## CC(CN(C)C(=O)c1c(CCCCCCc2cccc(Cl)c2)n(C)c2ccc(Cl)cc12)C(=O)O (stereo not drawn) [Compound I-243]
Neutrophil
  IC50: > 300 nM

## Cn1c(CCCCCC(O)c2cccc(Cl)c2)c(C(=O)N2CC[C@H](C(=O)O)C2)c2cc(Cl)cnc21 (stereo partly drawn) [Compound I-173]
Neutrophil
  IC50: > 300 nM

## C[C@@H](CC(=O)O)CC(=O)c1c(CCCCCCC#CC2COC2)n(C)c2ccc(Cl)cc12 [Compound I-333]
Neutrophil
  IC50: > 300 nM

## CC(CC(=O)O)CC(=O)c1c2cc(C#N)cnc2n(C)c1[C@H]1CC[C@@H](OCc2cccc(Cl)c2)CC1 (stereo partly drawn) [Compound I-292]
Neutrophil
  IC50: > 300 nM

## C[C@H](CC(=O)O)CC(=O)c1c(CCCCC(=O)Nc2cccc(Cl)c2)n(C)c2ccc(Cl)cc12 [Compound I-80]
Neutrophil
  IC50: > 300 nM

## C[C@H](CC(=O)O)CC(=O)c1c(CCCCCCc2ccccn2)n(C)c2ccc(Cl)cc12 [Compound I-54]
Neutrophil
  IC50: 100 to 300 nM

## CC(CC(=O)O)CC(=O)c1c(CCCCCC(O)c2cccc(C(=O)N(C)C)c2)n(C)c2ncc(C#N)cc12 (single isomer, unassigned) [Compound I-317]
  IC50: < 100 nM

## CC(CC(=O)O)CC(=O)c1c(CCCCCCC#CCC(F)(F)F)n(C)c2ccc(Cl)cc12 (stereo not drawn) [Compound I-111]
Neutrophil
  IC50: 100 to 300 nM

## C[C@H](CC(=O)O)CC(=O)c1c(CCCCCCC#CC2CC(F)(F)C2)n(C)c2ccc(Cl)cc12 [Compound I-319]
Neutrophil
  IC50: < 100 nM

## C[C@H](CC(=O)O)CC(=O)c1c(CCCCCNc2ncccn2)n(C)c2ccc(Cl)cc12 [Compound I-82]
Neutrophil
  IC50: 100 to 300 nM

## CC(CC(=O)O)CC(=O)c1c(CCCCCCc2cccc(Cl)c2)n(CCN(C)C)c2ncc(C#N)cc12 (stereo not drawn) [Compound I-281]
Neutrophil
  IC50: > 300 nM

## CC(CC(=O)O)CC(=O)c1c(CCCCCC(O)c2cccc(C#N)c2)n(C)c2ncc(Cl)cc12 (single isomer, unassigned) [Compound I-309]
  IC50: > 300 nM

## C[C@H](CC(=O)O)CC(=O)c1c(CCCCCN(C)c2ncccn2)n(C)c2ccc(Cl)cc12 [Compound I-124]
Neutrophil
  IC50: 100 to 300 nM

## C[C@H](CC(=O)O)CC(=O)c1c(CCCCOCc2cccc(F)c2)n(C)c2ncc(Cl)cc12 [Compound I-100]
Neutrophil
  IC50: 100 to 300 nM

## Cn1c(CCCCCCC#CC2CC(F)(F)C2)c(C(=O)N2CC[C@H](C(=O)NCC(=O)O)C2)c2cc(C#N)cnc21 [Compound I-462]
Neutrophil
  IC50: > 300 nM

## CC(=O)NCCCCCc1c(C(=O)C[C@H](C)CC(=O)O)c2cc(Cl)ccc2n1C [Compound I-126]
Neutrophil
  IC50: > 300 nM

## C[C@@H](CC(=O)O)CC(=O)c1c(CCCCO[C@H](C)c2ccccc2)n(C)c2ncc(C#N)cc12 [Compound I-433]
Neutrophil
  IC50: > 300 nM

## CC(=O)N(C)c1cccc(COCCCCc2c(C(=O)CC(C)CC(=O)O)c3cc(C#N)cnc3n2C)c1 (stereo not drawn) [Compound I-299]
Neutrophil
  IC50: 100 to 300 nM

## CC(C)COCCc1c(C(=O)C[C@H](C)CC(=O)O)c2cc(Cl)ccc2n1C [Compound I-72]
Neutrophil
  IC50: > 300 nM
